{"source": "patent US20110230476A1", "about": "“PI3 KINASE INHIBITORS AND USES THEREOF” (AVILA THERAPEUTICS, INC., priority 2009, published 2011)", "key": {"PI3 kinase": {"tested_on": "PI3 kinase", "assay": "Comparison of covalent and non-covalent inhibitors (Tables 18 and 19): prolonged PD, mechanism", "conditions": "Table 19", "method": "“A” designates ≦10 nM; “B” designates 10-100 nM; and “C” designates 100-1000 nM"}, "SKOV3 cells": {"tested_on": "SKOV3 cells", "assay": "GI50 determinations in SKOV3 cells", "assay_type": "cell-based", "conditions": "Homo sapiens, SK-OV-3"}, "SKOV-3 tumors": {"tested_on": "SKOV-3 tumors", "assay": "Tumor growth inhibition in vivo", "conditions": "nude mice, subcutaneous SKOV-3 tumors; GDC-941 orally, II-a-3 I.P., 50-100 mg/Kg/QD, 21 days", "method": "Tumor Growth Inhibition In Vivo\nThe in vivo experiment was performed at Piedmont Research Center (Research Triangle Park, N.C.). Nude mice were implanted with SKOV-3 tumors subcutaneously. […] Dosing continued for 21 days. Tumor volume was measured twice a week."}, "PI3Kα": {"biological_target": "PI3Kα (Homo sapiens, UniProt P42336)", "sequence (P42336 whole entry)": "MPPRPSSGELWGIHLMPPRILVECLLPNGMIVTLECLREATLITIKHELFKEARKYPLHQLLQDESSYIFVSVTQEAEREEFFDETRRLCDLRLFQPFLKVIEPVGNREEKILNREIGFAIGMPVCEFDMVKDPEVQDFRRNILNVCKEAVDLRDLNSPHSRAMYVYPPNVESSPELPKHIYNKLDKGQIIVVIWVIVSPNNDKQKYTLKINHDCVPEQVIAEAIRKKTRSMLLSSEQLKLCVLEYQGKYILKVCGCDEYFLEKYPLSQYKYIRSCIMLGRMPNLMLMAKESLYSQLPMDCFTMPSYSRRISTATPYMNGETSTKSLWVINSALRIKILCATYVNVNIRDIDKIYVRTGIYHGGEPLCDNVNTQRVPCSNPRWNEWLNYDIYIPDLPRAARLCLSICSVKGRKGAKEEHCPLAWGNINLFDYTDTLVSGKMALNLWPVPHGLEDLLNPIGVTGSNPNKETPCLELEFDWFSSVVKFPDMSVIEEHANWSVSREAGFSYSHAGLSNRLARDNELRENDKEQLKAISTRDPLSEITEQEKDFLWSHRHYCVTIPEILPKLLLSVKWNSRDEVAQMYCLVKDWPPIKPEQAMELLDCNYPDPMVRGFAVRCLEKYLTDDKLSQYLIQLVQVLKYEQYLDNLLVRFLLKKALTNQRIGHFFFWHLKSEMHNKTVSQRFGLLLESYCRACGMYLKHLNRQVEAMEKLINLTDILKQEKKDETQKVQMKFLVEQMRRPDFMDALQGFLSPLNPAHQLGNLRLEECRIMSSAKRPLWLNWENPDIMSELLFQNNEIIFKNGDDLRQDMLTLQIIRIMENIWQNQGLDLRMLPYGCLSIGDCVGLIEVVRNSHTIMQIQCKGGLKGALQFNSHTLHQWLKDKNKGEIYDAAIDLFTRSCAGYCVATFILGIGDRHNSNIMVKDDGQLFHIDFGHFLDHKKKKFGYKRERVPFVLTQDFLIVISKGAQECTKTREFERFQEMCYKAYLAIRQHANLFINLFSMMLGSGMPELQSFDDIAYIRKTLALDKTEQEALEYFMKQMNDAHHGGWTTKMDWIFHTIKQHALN", "sequence (P27986 whole entry partner)": "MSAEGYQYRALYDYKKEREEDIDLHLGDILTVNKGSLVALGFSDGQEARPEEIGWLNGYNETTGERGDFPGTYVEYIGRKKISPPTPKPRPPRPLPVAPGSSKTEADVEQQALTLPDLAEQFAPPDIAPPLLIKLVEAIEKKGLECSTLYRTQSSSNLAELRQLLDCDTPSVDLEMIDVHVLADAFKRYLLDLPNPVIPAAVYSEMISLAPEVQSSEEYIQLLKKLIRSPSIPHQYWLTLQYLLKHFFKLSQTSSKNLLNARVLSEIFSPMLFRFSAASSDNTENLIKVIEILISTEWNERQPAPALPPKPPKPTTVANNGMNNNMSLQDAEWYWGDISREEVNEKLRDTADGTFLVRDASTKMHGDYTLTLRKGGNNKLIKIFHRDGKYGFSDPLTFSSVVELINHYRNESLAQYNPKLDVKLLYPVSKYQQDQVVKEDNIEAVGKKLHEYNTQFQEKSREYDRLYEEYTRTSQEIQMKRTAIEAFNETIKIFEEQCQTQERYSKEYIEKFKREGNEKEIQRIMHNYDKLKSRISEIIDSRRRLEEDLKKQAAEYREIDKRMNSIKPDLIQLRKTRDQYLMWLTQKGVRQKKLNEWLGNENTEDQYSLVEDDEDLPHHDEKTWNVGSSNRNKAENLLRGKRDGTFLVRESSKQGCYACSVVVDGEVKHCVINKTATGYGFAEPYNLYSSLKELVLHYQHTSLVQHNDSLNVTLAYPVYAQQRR", "assay": "Mass spectrometry of intact PI3Kα (Millipore, 14-602), 1 hr incubation", "assay_type": "binding", "set-up": "purchased Millipore 14-602", "conditions": "10× fold excess of compound, MALDI", "method": "Mass Spectrometry for PI3K\nAliquots (5 μl) of the samples were diluted with 15 μl of 0.2% TFA prior to micro C4 ZipTipping directly onto the MALDI target using Sinapinic acid as the desorption matrix (10 mg/ml in 0.1% TFA:Acetonitrile 50:50)."}}, "note": "“Also recorded” adds a separate entry of the source.", "data": [{"smiles": "CC(C)=CC(=O)CCC(=O)N1CCN(Cc2cc3nc(-c4cccc5[nH]ncc45)nc(N4CCOCC4)c3s2)CC1", "note": "[II-a-3, 1-(4-((2-(1H-indazol-4-yl)-4-morpholinothieno[3,2-d]pyrimidin-6-yl)methyl)piperazin-1-yl)-6-methylhept-5-ene-1,4-dione]", "values": [{"measurement": "Prolonged PD", "setting": "PI3 kinase", "value": "Yes"}, {"measurement": "GI50", "setting": "SKOV3 cells; SKOV3 cells, 96 hours, Cell Titer Glo", "value": "10 to 100", "unit": "nM"}, {"measurement": "GI50", "setting": "SKOV3 cells; Table 19, assay not given, classes agree with Table 26", "value": "10 to 100", "unit": "nM"}, {"measurement": "tumor growth", "setting": "SKOV-3 tumors", "value": "Inhibition of tumor growth"}, {"measurement": "covalent modification of PI3Kα", "setting": "PI3Kα", "value": "complete modification; also recorded: covalent modification"}]}]}
